Assay [1] addresses T1, IKZF1Δ-CRBN complex formation (Homo sapiens, UniProt Q13422+Q96SW2, DEL197-239).
T1 construct: made in house; host or cells: Trichoplusia ni High-Five insect cells (baculovirus)
The assay is described as follows: CRBN-IKZF1Δ binding assay (TR-FRET). The settings on record: IKZF1Δ and DDB1ΔB-CRBN. The procedure: Compounds in CRBN mutants dimerization assay were dispensed as described above into 200 nM His6-DDB1-His6-CRBNmutants or 200 nM His6-DDB1ΔB-His6-CRBNWT, 100 nM BRD4BD1-BODIPY-SpyCatcher and 2 nM terbium-anti-HIS Ab (Invitrogen) in a buffer containing 50 mM Tris pH 7.5, 100 mM NaCl, 0.1% Pluronic F-68 solution (Sigma) and 2% DMSO (4% DMSO final). Before TR-FRET measurements were conducted, the reactions were incubated for 15 min at RT. […] The TR-FRET signal of each data point was extracted by calculating the 520/490 nm ratio. […] The peak height of TR-FRET dBET dose response data was calculated in GraphPad Prism 7 using Area Under Curve analysis for three independent replicates (n=3) and the mean peak height and standard deviation calculated.
The standard deviation in IKZF1A TR-FRET compound titrations was calculated from three biological replicates (n=3) as an average of 5 technical replicates per well per experiment, or as an average of 5 technical replicates of single experiment for unlabelled protein titrations.

For assay [2], the system named is BRD2BD1, BRD2BD2, BRD3BD1, BRD3BD2, BRD4BD1, BRD4BD2 GFP constructs. Kind of assay: Cellular imaging-based degradation assay (bromodomain-GFP with mCherry reporter). It is filed as cell-based, human. The procedure: Cells stably expressing bromodomain-GFP with mCherry reporter were seeded at 30-50% confluency in 384 well plates (3764, Corning) with 50 μL FluoroBrite DMEM media (Gibco, A18967) containing 10% FBS per well a day before compound treatment. Compounds (see Figure legends) were dispensed using D300e Digital Dispenser (HP) normalized to 0.5% DMSO and incubated with cells for 5 h. The assay plate was imaged immediately using Acumen eX3/HCl (TTPLabtech) High Content Imager with 488 nm and 561 nm lasers in 2 μm×1 μm grid per well format. The resulting images were analyzed using CellProfiler™ (Carpenter, et al., GenomeBiology 7:r100 (2006)). A series of image analysis steps (‘image analysis pipeline’) was constructed.
The CellProfiler™ pipeline steps are briefly outlined here. First, the red and green channels were aligned and cropped to target the middle of each well (to avoid analysis of heavily clumped cells at the edges), and a background illumination function was calculated for both red and green channels of each well individually and subtracted to correct for illumination variations across the 384-well plate from various sources of error. An additional step was then applied to the green channel to suppress the analysis of large auto fluorescent artifacts and enhance the analysis of cell specific fluorescence by way of selecting for objects under a given size, 30 A.U., and with a given shape, speckles. mCherry-positive cells were then identified in the red channel filtering for objects between 8-60 pixels in diameter and using intensity to distinguish between clumped objects. The green channel was then segmented into GFP positive and negative areas and objects were labeled as GFP positive if at least 40% of it overlapped with a GFP positive area. The fraction of GFP-positive cells/mCherry-positive cells (GFP/mCherry ratio) in each well was then calculated, and the green and red images were rescaled for visualization. The GFP/mCherry ratio was normalized to DMSO and analyzed in GraphPad Prism 7.

In assay [3] the test system is BRD2BD1, BRD2BD2, BRD3BD1, BRD3BD2, BRD4BD1, BRD4BD2 EGFP constructs. The assay is described as follows: EGFP/mCherry reporter assay on individual BET bromodomains (flow cytometry). The format is cell-based, human. The settings on record: BRD2/3/4 BD1 and BD2. The procedure:
(§1) IKZF1A, BRD2BD1, BRD2BD2, BRD3BD1, BRD3BD2, BRD4BD1, and BRD4BD2 were subcloned into mammalian pcDNA5/FRT Vector (Ampicillin and Hygromycin B resistant) modified to contain MCS-eGFP-P2A-mCherry. […] Following 2-3 passage cycle FACS (FACSAria II, BD) was used to enrich for cells expressing eGFP and mCherry.
(§2) Signal from 5000 cells per well was acquired in singlicate or duplicate and the eGFP and mCherry florescence monitored. Data was analyzed using FlowJo (FlowJo, LCC). […] The eGFP protein abundance relative to mCherry was then quantified as a ten-fold amplified ratio for each individual cell using the formula: 10×eGFP/mCherry. The median of the ratio was then calculated per set, normalized to the median of the DMSO ratio, and is denoted as relative abundance. Standard deviation is calculated from four replicates (n=4) unless described otherwise.

Another assay has as its target T2, BRD4BD1-EGFP (Homo sapiens, UniProt O60885+Q96SW2).
T2 construct: expressed in transfected cells
Kind of assay: BRD4BD1-EGFP/mCherry reporter cellular degradation assay (flow cytometry). The format is cell-based. The conditions noted are these: 5 h treatment. How it is done:
Reporter cells that stably express BRD4BD1-EGFP followed by a P2A splice site separated mCherry, were treated with increasing concentrations of dBET molecules (FIG. 3A-FIG. 3F). […] IKZF1A, BRD2BD1, BRD2BD2, BRD3BD1, BRD3BD2, BRD4BD1, and BRD4BD2 were subcloned into mammalian pcDNA5/FRT Vector (Ampicillin and Hygromycin B resistant) modified to contain MCS-eGFP-P2A-mCherry. […] Following 2-3 passage cycle FACS (FACSAria II, BD) was used to enrich for cells expressing eGFP and mCherry.
as §2
Background: In flow cytometry, cells or beads pass a laser one at a time.

In assay [4] the target is T3, IKZF1Δ-EGFP fusion protein (Homo sapiens, UniProt Q13422+Q96SW2, DEL197-239).
T3 construct: expressed in transfected cells; HEK293T cells
The assay is described as follows: IKZF1Δ-EGFP fusion protein degradation reporter assay (flow cytometry). The format is cell-based. The settings on record: HEK293T cells. How it is done:
as §1, §2
(In general: In a reporter assay the amount or activity of a reporter protein is the signal.)

Setting [5] is: 5 h incubation, cellular imaging.

The structures appear in SMILES notation. “Also recorded” adds a separate entry of the source.

T1 sequence (Q96SW2 whole entry, stated change not applied): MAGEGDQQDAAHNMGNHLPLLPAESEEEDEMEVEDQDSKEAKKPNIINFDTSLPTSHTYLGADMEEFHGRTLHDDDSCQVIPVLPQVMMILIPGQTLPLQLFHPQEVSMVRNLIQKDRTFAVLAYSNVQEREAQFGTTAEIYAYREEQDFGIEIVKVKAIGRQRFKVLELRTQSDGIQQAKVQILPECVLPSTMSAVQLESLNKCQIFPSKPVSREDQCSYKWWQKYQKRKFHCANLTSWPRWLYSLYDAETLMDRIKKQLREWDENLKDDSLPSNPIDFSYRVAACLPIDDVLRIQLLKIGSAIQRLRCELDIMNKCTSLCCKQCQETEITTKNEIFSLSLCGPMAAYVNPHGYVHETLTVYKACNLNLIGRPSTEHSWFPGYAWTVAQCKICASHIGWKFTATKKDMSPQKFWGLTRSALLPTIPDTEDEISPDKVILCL
T1 sequence (Q13422 with tags, fused parts or gaps DEL197-239 limits assumed): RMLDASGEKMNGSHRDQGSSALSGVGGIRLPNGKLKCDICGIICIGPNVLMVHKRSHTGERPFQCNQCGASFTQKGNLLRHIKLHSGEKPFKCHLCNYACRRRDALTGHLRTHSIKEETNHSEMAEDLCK

Consider `Cc1sc2c(c1C)C(c1ccc(Cl)cc1)=N[C@@H](CC(=O)NCCOc1cccc3c1C(=O)N(C1CCC(=O)NC1=O)C3=O)c1nnc(C)n1-2` (stereo partly shown) [ZXH-2-42], for which, in assay [1], the “induction of IKZF1-CRBN complex formation / IKZF1 binding (in words)” value is reported as “greatly reduced compared to their nitrogen analogs”. For the same compound, the “bromodomain degradation activity and selectivity (in words)” value in assay [2] (setting [5]) is listed as “significantly reduced activity”. As for `COC(=O)C[C@@H]1N=C(c2ccc(Cl)cc2)c2c(sc(C(=O)NCCNc3cccc4c3C(=O)N(C3CCC(=O)NC3=O)C4=O)c2C)-n2c(C)nnc21` (stereo partly shown) [ZXH-3-27], the “selectivity of degradation across BET bromodomains (in words)” value in assay [3] is given as “lack of selective degradation of BRD4”. Consider `Cc1ncsc1-c1ccc(CNC(=O)[C@@H]2C[C@@H](O)CN2C(=O)[C@@H](NC(=O)COCCOCCOCCNC(=O)C[C@@H]2N=C(c3ccc(Cl)cc3)c3c(sc(C)c3C)-n3c(C)nnc32)C(C)(C)C)cc1` [MZ1, reference compound], for which the “selectivity of degradation across BET bromodomains (in words)” value in assay [3] is “activity on most bromodomains”.

On to `COC(=O)C[C@@H]1N=C(c2ccc(Cl)cc2)c2c(sc(C(=O)NCCCCCOc3cccc4c3C(=O)N(C3CCC(=O)NC3=O)C4=O)c2C)-n2c(C)nnc21` (stereo partly drawn) [BJG-02-030, Methyl 2-((6S)-4-(4-chlorophenyl)-2-((5-((2-(2,6-dioxopiperidin-3-yl)-1,3-dioxoisoindolin-4-yl)oxy)pentyl)carbamoyl)-3,9-dimethyl-6H-thieno[3,2-f][1,2,4]triazolo[4,3-a][1,4]diazepin-6-yl)acetate], for which the “bromodomain degradation activity and selectivity (in words)” value in assay [2] (setting [5]) is on record as “maintained BRD4BD1 degradation selectivity, with reduced activity”. Still for that read-out and setting: the same measure for `COC(=O)C[C@@H]1N=C(c2ccc(Cl)cc2)c2c(sc(C(=O)NCCCCCNc3ccc(F)c4c3C(=O)N(C3CCC(=O)NC3=O)C4=O)c2C)-n2c(C)nnc21` (stereo partly drawn) [BJG-02-119, Methyl 2-((6S)-4-(4-chlorophenyl)-2-((5-((2-(2,6-dioxopiperidin-3-yl)-7-fluoro-1,3-dioxoisoindolin-4-yl)amino)pentyl)carbamoyl)-3,9-dimethyl-6H-thieno[3,2f][1,2,4]triazolo[4,3-a][1,4]diazepin-6-yl)acetate]: “maintaining selectivity, with reduced activity as compared to ZXH-3-26”. For `COC(=O)C[C@@H]1N=C(c2ccc(Cl)cc2)c2c(sc(C(=O)NCCCNc3cccc4c3C(=O)N(C3CCC(=O)NC3=O)C4=O)c2C)-n2c(C)nnc21` (stereo partly shown) [ZXH-2-147], the “degradation of BRD4BD1 (in words)” value at BRD4BD1-EGFP was “active on BRD4BD1”. Besides, the “selectivity of degradation across BET bromodomains (in words)” value in assay [3] is “selectively targets BRD4 for degradation and spares BRD2 and BRD3; also recorded: selective degradation of BRD4”.

With `COC(=O)C[C@@H]1N=C(c2ccc(Cl)cc2)c2c(sc(C(=O)NCCCCCCc3cccc4c3C(=O)N(C3CCC(=O)NC3=O)C4=O)c2C)-n2c(C)nnc21` (stereo partly shown) [ZXH-3-82], the “selectivity of degradation across BET bromodomains (in words)” value in assay [3] was “selectively targets BRD4 for degradation and spares BRD2 and BRD3”.

For the compound `COC(=O)C[C@@H]1N=C(c2ccc(Cl)cc2)c2c(sc(C(=O)NCCCCCCCCNc3ccc4c(c3)C(=O)N(C3CCC(=O)NC3=O)C4=O)c2C)-n2c(C)nnc21` (stereo partly shown) [dBET72, reference compound], in assay [4], the “cellular IKZF1 degradation (in words)” value is “equipotent to lenalidomide”. The “induction of IKZF1-CRBN complex formation / IKZF1 binding (in words)” value in assay [1] is “pronounced complex formation”.

Turning to `COC(=O)C[C@@H]1N=C(c2ccc(Cl)cc2)c2c(sc(C(=O)NCCCCCNc3cc(F)cc4c3CN(C3CCC(=O)NC3=O)C4=O)c2C)-n2c(C)nnc21` (stereo partly drawn) [BJG-01-174, Methyl 2-((6S)-4-(4-chlorophenyl)-2-((5-((2-(2,6-dioxopiperidin-3-yl)-6-fluoro-1-oxoisoindolin-4-yl)amino)pentyl)carbamoyl)-3,9-dimethyl-6H-thieno[3,2-f][1,2,4]triazolo[4,3-a][1,4]diazepin-6-yl)acetate], the “bromodomain degradation activity and selectivity (in words)” value in assay [2] (setting [5]) was “inactive degrader”.

Take `COC(=O)C[C@@H]1N=C(c2ccc(Cl)cc2)c2c(sc(C(=O)NCCCCCCCCOc3ccc4c(c3)C(=O)N(C3CCC(=O)NC3=O)C4=O)c2C)-n2c(C)nnc21` (stereo partly shown) [ZXH-2-45]: in assay [4], the “cellular IKZF1 degradation (in words)” value is “reduced IKZF1 binding and IKZF1 degradation”. For the same compound, the “induction of IKZF1-CRBN complex formation / IKZF1 binding (in words)” value in assay [1] is recorded as “greatly reduced compared to their nitrogen analogs; also recorded: reduced IKZF1 binding”. Moreover, the “bromodomain degradation activity and selectivity (in words)” value in assay [2] (setting [5]) is recorded as “potent degradation of bromodomains”.

As for `COC(=O)C[C@@H]1N=C(c2ccc(Cl)cc2)c2c(sc(C(=O)NCCCCNc3cccc4c3C(=O)N(C3CCC(=O)NC3=O)C4=O)c2C)-n2c(C)nnc21` (stereo partly shown) [ZXH-2-184], the “selectivity of degradation across BET bromodomains (in words)” value in assay [3] was “selectively targets BRD4 for degradation and spares BRD2 and BRD3; also recorded: selective degradation of BRD4”. Regarding `COC(=O)C[C@@H]1N=C(c2ccc(Cl)cc2)c2c(sc(C(=O)NCCCCCCCCOc3cccc4c3C(=O)N(C3CCC(=O)NC3=O)C4=O)c2C)-n2c(C)nnc21` (stereo partly shown) [ZXH-2-43], the “cellular IKZF1 degradation (in words)” value in assay [4] is “reduced IKZF1 binding and IKZF1 degradation”. Moreover, the “induction of IKZF1-CRBN complex formation / IKZF1 binding (in words)” value in assay [1] is reported as “greatly reduced compared to their nitrogen analogs; also recorded: reduced IKZF1 binding”. In addition, in assay [2] (2.6 nM concentration, 5 h), the “degradation of BRD2/3/4 at low concentration (in words)” value is “significant degradation of BRD2/3/4”. In assay [2] (setting [5]), the “bromodomain degradation activity and selectivity (in words)” value is given as “potent degradation of bromodomains”. Take `COC(=O)C[C@@H]1N=C(c2ccc(Cl)cc2)c2c(sc(C(=O)NCCNc3ccc4c(c3)C(=O)N(C3CCC(=O)NC3=O)C4=O)c2C)-n2c(C)nnc21` (stereo partly shown) [ZXH-3-28]: the “bromodomain degradation activity and selectivity (in words)” value in assay [2] (setting [5]) was “inactive molecule”. As for `COC(=O)C[C@@H]1N=C(c2ccc(Cl)cc2)c2c(sc(C(=O)NCCCc3cccc4c3C(=O)N(C3CCC(=O)NC3=O)C4=O)c2C)-n2c(C)nnc21` (stereo partly shown) [ZXH-3-52], the “BRD3/BRD4 selective degradation observed” value in assay [2] (setting [5]) is recorded as “BRD3/BRD4 selective degraders”.
